Experimental findings from patent US20180319786A1, “INHIBITOR OF THE P2X7 RECEPTOR” (H. Lundbeck A/S, priority 2015, published 2018) are described below.

The test system of assay [1] is CCI animals. The assay is described as follows: Chronic constrictive injury (CCI) model of neuropathic pain (von Frey PWT). The format is in vivo, rat. Particulars: 100 mg/kg, PWT 120 minutes following administration, p<0.05. The method, then: Male Sprague Dawley rats (Harlan) were used in the study. Upon receipt, rats were group housed with 2-3 per cage in standard cages. Rats were allowed to acclimate for up to 1 week prior to surgery. All rats were examined and weighed prior to initiation of the study to assure adequate health and suitability. During the course of the study, 12/12 light/dark cycles were maintained. The room temperature was maintained between 20° C. and 23° C. with a relative humidity maintained around 50%. Chow and water were provided ad libitum for the duration of the study. All testing was performed during the animals' light cycle phase. Rats were single housed after surgery.
This surgery was performed according to Bennett and Xie (1988). […] Each rat was monitored until awake and moving freely around the recovery chamber. […]
Paw withdrawal from a mechanical stimulus was measured by applying von Frey filaments of ascending bending force to the plantar surface of the hind paws (ipsilateral and contralateral). Baseline and post-treatment withdrawal threshold values for non-noxious mechanical sensitivity were evaluated using von Frey filaments (Semmes-Weinstein filaments, Stoelting, Wood Dale, Ill., USA) of varying stiffness (0.4, 0.7, 1.2, 2.0, 3.6, 5.5, 8.5, 10, 15, 26 g). […]
Data were analyzed by Analysis of variance (ANOVA), followed by post-hoc comparisons when appropriate. […]

Assay [2] has as its system SNI rats. The assay is described as follows: SNI model of neuropathic pain (von Frey mechanical allodynia). Particulars: for reversal of mechanical hypersensitivity: SNI rats 3-4 weeks post injury. The format is in vivo, rat. The procedure: (§1) Male Sprague Dawley rats (Charles River, Germany) weighing 250-300 g on the day of gabapentin administration were used (n=8-10 per group). The animals were housed in Macrolon III cages (20×14×18 cm or 20×40×18 cm; in groups of 3-5 per cage according to weight) containing wood-chip bedding material (3×1×4 mm) in an air-conditioned building with controlled environmental parameters (relative humidity 55±15%, temperature 20±2° C., and light from 06.00 to 19.00 h). Food and water were available ad libitum. The rats were allowed to habituate to the housing facilities for at least one week prior to being assigned to behavioral experiments whereupon they were randomly distributed across treatment groups. All experiments were performed according to the Ethical Guidelines of the International Association for the Study of Pain and the Danish Committee for Experiments on Animals.
A spared nerve injury (SNI) was performed in rats (body weight 180-220 g at the time of surgery) as described previously [Decosterd, I. and C. J. Woolf, Pain, 2000. 87(2): p. 149-581. Anaesthesia was induced and maintained by 2% isoflurane (Baxter A/S, Alleroed, Denmark), combined with oxygen (30%) and nitrous oxide (68%). Next, the skin of the lateral left thigh was incised and the cranial and caudal parts of the biceps femoris muscle were separated and held apart by a retractor to expose the sciatic nerve and its three terminal branches: the sural, common peroneal and tibial nerves. The tibial and common peroneal nerves were tightly ligated with 4/0 silk and 2-3 mm of the nerve distal to the ligation was removed. Any stretching or contact with the intact sural nerve was avoided. […] The presence of mechanical allodynia was assessed using a series of calibrated von Frey hairs (lower limit=0.06 and upper limit=13.5 g, Stoelting Co, Wood Dale Ill.), which were applied to the lateral aspect of the plantar surface of the hindpaw with increasing force until an individual filament used just started to bend. […]

For assay [3], the target named is T1, human P2X7 receptors (Homo sapiens, UniProt Q99572).
T1 construct: expressed in transfected cells; host or cells: HEK293
T1 sequence (Q99572 1-595): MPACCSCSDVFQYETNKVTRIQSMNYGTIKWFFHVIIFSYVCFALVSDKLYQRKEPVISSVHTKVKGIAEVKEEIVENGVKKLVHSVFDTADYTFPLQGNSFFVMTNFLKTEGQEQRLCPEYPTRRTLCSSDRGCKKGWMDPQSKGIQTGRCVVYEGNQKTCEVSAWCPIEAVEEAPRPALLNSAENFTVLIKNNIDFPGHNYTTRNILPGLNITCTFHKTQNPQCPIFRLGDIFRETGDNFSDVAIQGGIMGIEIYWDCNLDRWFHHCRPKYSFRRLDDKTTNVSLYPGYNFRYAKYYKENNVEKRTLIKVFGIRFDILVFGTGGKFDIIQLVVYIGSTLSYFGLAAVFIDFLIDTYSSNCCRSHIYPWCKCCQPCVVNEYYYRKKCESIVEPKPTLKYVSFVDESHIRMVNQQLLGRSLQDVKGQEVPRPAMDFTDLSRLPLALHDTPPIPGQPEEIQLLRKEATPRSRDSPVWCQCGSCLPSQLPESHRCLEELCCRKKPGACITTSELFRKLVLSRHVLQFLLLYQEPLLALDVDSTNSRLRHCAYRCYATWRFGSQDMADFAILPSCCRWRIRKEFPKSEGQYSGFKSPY
The assay is described as follows: P2X7 FLIPR assay. Particulars: Human P2X7 in HEK293 cells, BzATP 8 μM, Ca2+ mobilization. Format: cell-based. The procedure:
HEK293 cells stably expressing either human, mouse, or rat P2X7 receptors were plated in 384-well poly-D-lysine-coated black FLIPR plates (Greiner One, Cat #781946) using 1.5% FBS media 24 hours before the assay. Sucrose buffer, pH 7.4 was used for the human-P2X7 assay (5 mM of potassium chloride, 9.6 mM NaH2PO4.2H2O, 25 mM Hepes, 0.5 mM CaCl2, 5 mM glucose, 280 mM sucrose and 1.0 mM probenecid (Sigma, St. Louis, Mo.)). Hank's balanced salt solution buffer, pH 7.4 was used for the rat-P2X7 assay (1×HBSS buffer supplemented with 20 mM Hepes plus 2.5 mM probenecid (Sigma, St. Louis, Mo.) and 0.05% bovine serum albumin After removing the media, the plates were loaded with 30 μL of Fluo-4 NW (Molecular Probes, F36206), and were incubated at 37° C. for 30 min in a humidified chamber (5% CO2/95% air), and for 30 min at RT. Mobilization of intracellular Ca^+2 in response to different ligands was measured online using the FLIPR Tetra reader. In the assay, baseline fluorescence was measured for 15 seconds, then 15 μL of 4× compounds (40 μM) was added, fluorescence was monitored for 3 min for agonist activity, 15 μL of 4×BzATP (hP2X7 1×8 μM, rP2X7 1×15 μM) was added and after a 30 min incubation at room temperature the fluorescence was read for 3 min for IC50 determination.

Assay [4] has as its system CFA inflamed rats. The assay is described as follows: CFA-induced inflammatory hyperalgesia (paw pressure threshold). The format is in vivo, rat. The method, then: as §1
Individual rats received a subcutaneous injection of CFA (50% in saline, 100 μl total volume, Sigma Aldrich) into the plantar surface of the hindpaw. All rats were then immediately returned to their homecage. The day prior to this (pre-CFA baseline response), and then again 24 h post CFA injection (post-CFA baseline response), hindpaw paw pressure thresholds were measured to obtain an index of evoked mechanical hyperalgesia [Ref: Munro, G., et al., Neuropharmacology, 2011. 61(1-2): p. 121-132.1. To do this, the investigator gently restrained the rat prior to the application of progressively increasing mechanical pressure to the mid hindpaw region using an electronic version of the Randall-Selitto device (HTC, U.S.A.) The point at which the rat attempted to make a reflex hindpaw withdrawal which in some instances was followed by vocalization was recorded as the paw pressure threshold (g). […] Thereafter, CFA inflamed rats received oral administration of (S)-N-(2-(4-chlorophenyl)-2-morpholinoethyl)-2-(pyrimidin-2-yl)-4-(trifluoromethyl)thiazole-5-carboxamide or vehicle with the investigator blinded to treatment and the paw pressure threshold measured again 60 minutes later.

As for `NCC1(CC(=O)O)CCCCC1` [gabapentin, reference compound], the “PWT compared to vehicle treatment” value in assay [1] is on record as “significantly increased”. The “reversal of mechanical hypersensitivity” value in assay [2] (100 mg/kg dose) was determined as 132 % reversal.
As a reminder, the IC50 is the concentration that gives 50% inhibition. Read a low IC50 as greater potency. With `O=C(NCC(c1ccc(Cl)cc1)N1CCOCC1)c1sc(-c2ncccn2)nc1C(F)(F)F` (racemic) [Compound (III), (±)-N-(2-(4-chlorophenyl)-2-morpholinoethyl)-2-(pyrimidin-2-yl)-4-(trifluoromethyl)thiazole-5-carboxamide], half-maximal inhibition in assay [3] (IC50) required 0.032 ± 0.013 µM.
Consider `O=C(O)Cc1ccccc1Nc1c(Cl)cccc1Cl` [diclofenac, reference compound], for which the “reversal of mechanical hyperalgesia” value in assay [4] (NSAID comparator, dose not given) amounted to 84 % reversal.
Regarding `O=C(NC[C@H](c1ccc(Cl)cc1)N1CCOCC1)c1sc(-c2ncccn2)nc1C(F)(F)F` [Compound (I), (S)-N-(2-(4-chlorophenyl)-2-morpholinoethyl)-2-(pyrimidin-2-yl)-4-(trifluoromethyl)thiazole-5-carboxamide], the “PWT compared to vehicle treatment” value in assay [1] was “significantly increased”. Also, the half-inhibitory concentration (IC50) in assay [3] was 0.012 ± 0.01 µM. For the same compound, the “reversal of mechanical hypersensitivity” value in assay [2] (30 and 100 mg/kg tested, dose of this value not stated) amounted to 108 % reversal. Further, the “effect on mechanical hypersensitivity” value in assay [2] (30 and 100 mg/kg, F(3.47)=12.522, P<0.001) is listed as “dose dependently reversed”. For the same compound, the “reversal of mechanical hyperalgesia” value in assay [4] (30 mg/kg dose, oral, paw pressure threshold 60 minutes later, 24 h post CFA) is 62 % reversal. Also, the “effect on mechanical hyperalgesia” value in assay [4] (oral, F(4.49)=30.692, P<0.001) was “significantly reversed”.
`O=C(NC[C@@H](c1ccc(Cl)cc1)N1CCOCC1)c1sc(-c2ncccn2)nc1C(F)(F)F` [Compound (II), (R)-N-(2-(4-chlorophenyl)-2-morpholinoethyl)-2-(pyrimidin-2-yl)-4-(trifluoromethyl)thiazole-5-carboxamide]: inhibition in assay [3] was half-maximal at 0.089 ± 0.013 µM (IC50).
